From patent US20090075941A1, “TREATING NEOPLASMS” (THE UAB RESEARCH FOUNDATION, priority 2006, published 2009)

Key:
[1] = system: J774 cells; experiment: Cell viability, MTS-assay; type: cell-based
Protocol: (§1) Cell viability assays. Cells were plated on 96-well plates at the density of 1×10^3 cells in 100 μl per well in normal culture medium, with or without of the indicated concentrations of the various bisphosphonate combinations and or 1 mM CaCl2, 1 mM EGTA or vehicle and cultured for 48 h. Cell viability was assessed with 3-(4,5-dimethylthiazol-2-yl)-5-(3-carboxy tetrazolium, inner salt (MTS)-assays (CellTiter Aqueous One 96 from Promega; Madison, Wis.) according to the manufacturer's instructions. For each treatment, a PBS-control group was run simultaneously on the same plate. The results for each treatment were calculated as % of the corresponding PBS-group.

[2] = system: AB-12 cells; experiment: Cell viability, MTS-assay; type: cell-based, mouse
Protocol: as §1

[3] = system: p38 phosphorylation in AB12 cells; experiment: Western blot, phosphorylation of p38 (Example 1); type: cell-based, mouse; conditions: 24 h
Protocol: (§2) Western blotting. AB12 and AC29 cells were plated on 6-well plates in normal culture medium until near confluency. The cells were then rinsed with sterile PBS and cultured for further 24 h in serum-free culture medium, in the presence or absence of 2×10^−4-10^−5 M risedronate, zoledronate or PBS control, with or without 25 μM geranylgeraniol, or the same volume of ethanol as a vehicle control. Culture medium was discarded and the cells were harvested in lysis buffer (20 mM Tris pH 7.4, 150 mM NaCl, 1 mM EDTA, 1 mM EGTA, 1% Triton, 2.5 mM sodium pyrophosphate, 1 mM β-glycerolphosphate, 1 mM Na3VO4, 1 μg/ml leupeptin (Cell Signaling Technology, Inc.; Danvers, Mass.)) and clarified by centrifugation. After boiling the supernatants in reducing SDS sample buffer, equal amounts of protein (˜50 μg) were loaded per lane and the samples were electrophoresed on 10% polyacrylamide SDS gel and transferred to a nitrocellulose membrane. Unprenylated Rap1A was detected with the antibody SC-1482 and total Rap1 (both prenylated and unprenylated forms of both Rap1A and Rap1B) was detected with the antibody SC-65 (Santa Cruz Biotechnology, Inc.; Santa Cruz, Calif.), according to the manufacturer's recommendations. The phosphorylation status of p38 was studied with anti-phospho-p38 and anti-total p38 antibodies (Cell Signaling Technology, Inc.), as recommended by the manufacturer. […]

[4] = system: p38 phosphorylation in AC29 cells; experiment: Western blot, phosphorylation of p38 (Example 1); type: cell-based, mouse; conditions: 24 h
Protocol: as §2

[5] = system: AB12 cells; experiment: Intraperitoneal mouse mesothelioma model, survival; type: in vivo, BALB/c mice; conditions: AB12 i.p.
Protocol: (§3) In vivo mesothelioma models. Female BALB/c mice, four to eight weeks of age, were obtained from the National Cancer Institute-Frederick Cancer Research Facility (Frederick, Md.) and were housed in the Pathogen-Free Rodent Shared Facility (Comprehensive Cancer Center, University of Alabama at Birmingham). All animal procedures were performed, in accordance with recommendations for the proper care and use of laboratory animals and were approved by the local IACUC. Subcutaneous (s.c.) and intraperitoneal (i.p.) mouse mesothelioma models were evaluated. In the s.c. model, 3×10^6 AB12 cells were first injected s.c. into cohorts of BALB/c mice. Treatments with i.p. BPs or vehicle were started when tumors became palpable on day 10 and continued every six days for a total of 4 treatments. Tumor size was measured bidimensionally with calipers every two to three days and tumor volume calculated by the formula (length×width^2)÷2. Mice were euthanized before tumors reached the size of 2000 mm^3. In the i.p. model, AC29 or AB12 cells (5×10^5/0.5 ml) were injected i.p, into cohorts of 10-12 BALB/c using a 26-gauge needle. Treatment was initiated 6 days after tumor inoculation and the mice were followed for survival. In the i.p. model risedronate (15 mg/kg), zoledronate (0.5 mg/kg) or PBS were administered i.p. three times a week for two weeks.

[6] = system: unprenylated Rap1A in AB12 cells; experiment: Western blot, accumulation of unprenylated Rap1A (Example 1); type: cell-based, mouse
Protocol: (§4) Western blotting. AB12 and AC29 cells were plated on 6-well plates in normal culture medium until near confluency. The cells were then rinsed with sterile PBS and cultured for further 24 h in serum-free culture medium, in the presence or absence of 2×10^−4-10^−5 M risedronate, zoledronate or PBS control, with or without 25 μM geranylgeraniol, or the same volume of ethanol as a vehicle control. Culture medium was discarded and the cells were harvested in lysis buffer (20 mM Tris pH 7.4, 150 mM NaCl, 1 mM EDTA, 1 mM EGTA, 1% Triton, 2.5 mM sodium pyrophosphate, 1 mM β-glycerolphosphate, 1 mM Na3VO4, 1 μg/ml leupeptin (Cell Signaling Technology, Inc.; Danvers, Mass.)) and clarified by centrifugation. After boiling the supernatants in reducing SDS sample buffer, equal amounts of protein (˜50 μg) were loaded per lane and the samples were electrophoresed on 10% polyacrylamide SDS gel and transferred to a nitrocellulose membrane. Unprenylated Rap1A was detected with the antibody SC-1482 and total Rap1 (both prenylated and unprenylated forms of both Rap1A and Rap1B) was detected with the antibody SC-65 (Santa Cruz Biotechnology, Inc.; Santa Cruz, Calif.), according to the manufacturer's recommendations. The phosphorylation status of p38 was studied with anti-phospho-p38 and anti-total p38 antibodies (Cell Signaling Technology, Inc.), as recommended by the manufacturer. The protein bands were visualized by chemiluminescence using SuperSignal West Pico ECL kit (Pierce; Rockford, Ill.).

[7] = system: unprenylated Rap1A in AC29 cells; experiment: as above; type: cell-based, mouse
Protocol: as §4

[8] = system: AB12 cells; experiment: Subcutaneous mouse mesothelioma model, tumor volume; type: in vivo; conditions: AB12 s.c. in BALB/c mice; risedronate 15 mg/kg (P<0.02), zoledronate 0.5 mg/kg (P<0.003); every six days, 4 treatments from day 10
Protocol: as §3

[9] = system: MDA-MB-231 cells; experiment: Cell viability, MTS-assay; type: cell-based, human
Protocol: as §1

[10] = N-BP 10^−4 M + clodronate 10^−3 M
[11] = N-BP 10^−4 M + etidronate 10^−3 M
[12] = 1 mM CaCl2, N-BP 10^−4 M or p-BP 10^−3 M

**Q.** With `O=P(O)(O)C(O)(Cc1cccnc1)P(=O)(O)O` [risedronate] as the molecule, how does the “effect of added EGTA on the bisphosphonate's growth inhibitory effect” value ([1]; 1 mM EGTA, N-BP 10^−4 M or clodronate 10^−3 M) read?
**A.** reversed

**Q.** What about the cell viability ([1]; 10^−4 M) of the same molecule?
**A.** significantly decreased cellular viability

**Q.** What about the “effect of excess clodronate on the viability change induced by the nitrogen-containing bisphosphonate” value [1, 10] of the same molecule?
**A.** significantly reversed

**Q.** What about the “effect of excess etidronate on the viability change induced by the nitrogen-containing bisphosphonate” value [1, 11] of the same molecule?
**A.** reversed

**Q.** And the “effect of added Ca2+ on the bisphosphonate's growth inhibitory effect” value [2, 12]?
**A.** enhanced

**Q.** What about the “effect of added EGTA on the bisphosphonate's growth inhibitory effect” value ([2]; 1 mM EGTA, N-BP 10^−4 M) of the same molecule?
**A.** enhanced

**Q.** What about the “effect of excess clodronate on the viability change induced by the nitrogen-containing bisphosphonate” value [2, 10] of the same molecule?
**A.** decreased slightly, but significantly cell viability

**Q.** What about the “effect of excess etidronate on the viability change induced by the nitrogen-containing bisphosphonate” value [2, 11] of the same molecule?
**A.** decreased cell viability

**Q.** And the p38 phosphorylation [3]?
**A.** dose-dependent increase

**Q.** What about the p38 phosphorylation [4] of the same molecule?
**A.** dose-dependent increase

**Q.** What about the “long-term (> 60 days) survivors” value ([5]; groups of 12 mice, risedronate 15 mg/kg i.p.) of the same molecule?
**A.** three

**Q.** What about the median survival ([5]; zoledronate 0.5 mg/kg or risedronate 15 mg/kg i.p. three times a week for two weeks, PBS 26 days) of the same molecule?
**A.** 30 days

**Q.** And the “accumulation of unprenylated Rap1A” value ([6]; 24 h, 2×10^−4-2×10^−6 M)?
**A.** dose-dependent accumulation

**Q.** And the “reversal of BP-induced accumulation of unprenylated Rap1A by geranylgeraniol” value ([6]; with 25 μM geranylgeraniol)?
**A.** almost completely reversed

**Q.** And the “accumulation of unprenylated Rap1A” value ([7]; 24 h, 2×10^−4-2×10^−6 M)?
**A.** dose-dependent accumulation

**Q.** What about the “reversal of BP-induced accumulation of unprenylated Rap1A by geranylgeraniol” value ([7]; with 25 μM geranylgeraniol) of the same molecule?
**A.** almost completely reversed

**Q.** And the subcutaneous tumor growth [8]?
**A.** inhibited subcutaneous tumor growth

**Q.** What about the “effect of added Ca2+ on the bisphosphonate's growth inhibitory effect” value [9, 12] of the same molecule?
**A.** enhanced

**Q.** What about the “effect of excess clodronate on the viability change induced by the nitrogen-containing bisphosphonate” value [9, 10] of the same molecule?
**A.** did not interfere

**Q.** What about the “effect of excess etidronate on the viability change induced by the nitrogen-containing bisphosphonate” value [9, 11] of the same molecule?
**A.** increased
